Consider one compound from ChEMBL document CHEMBL6127121, “Development of N-(4-(1H-Imidazol-1-yl)phenyl)-4-chlorobenzenesulfonamide, a Novel Potent Inhibitor of β-Catenin with Enhanced Antitumor Activity and Metabolic Stability” (J Med Chem, 2024).

The source made the active and inactive calls. The rule behind the calls is not given here.

The half-life is how long it takes for the measured level to halve. One may read the EC50 as the concentration needed to bring the measured effect to its halfway point. Lower therefore signals higher potency in that assay.

Series [1] is described as follows: Downregulation of c-Myc mRNA level in human HCT-116 cells at 10 uM incubated for 24 hrs in presence of 50 mM LiCl by qPCR analysis. The class given is functional. For orientation: Quantitative PCR measures a nucleic acid by following its amplification.
Series [2] is described as follows: Metabolic stability in mouse liver microsomes assessed as half life preincubated for 10 mins followed by NADP, glucose-6-phosphate and glucose-6-phosphate dehydrogenase addition and measured upto 60 mins by LC-MS/MS analysis. In kind it is ADME, Microsome. The following applies: time < 70 min. (In general: Liver microsomes are vesicles of endoplasmic reticulum, rich in cytochrome P450 enzymes.)

Series [3] has as its system SW480. Kind of series: Inhibition of Wnt/beta-catenin signaling in human SW480 cells assessed as residual activity at IC50 concentration incubated for 12 hrs by Topflash/Fopflash Dual-Glo luciferase reporter assay. In kind it is cell-based. The following applies: dose 30.0 µM. For orientation: Reporter assays use an easily measured gene product as a stand-in for the process of interest.

Series [4] deals with HCT-116. Kind of series: Downregulation of beta-catenin protein level in human HCT-116 cells incubated for 24 hrs in presence of 50 mM LiCl by Western blotting analysis. The class given is functional, cell-based. The following applies: dose 10-100 µM.
Series [5] has as its system HCT-116. Description: Antitumor activity against human HCT-116 cells xenografted in BALB/c nu/nu mouse assessed as reduction in nuclear Ki67 expression at 25 mg/kg, ip administered every 2 days for 30 day by […] based assay. In kind it is functional, organism-based.
Series [6] is described as follows: Metabolic stability in human liver microsomes assessed as intrinsic clearance per mg protein preincubated for 10 mins followed by NADP, glucose-6-phosphate and glucose-6-phosphate dehydrogenase addition and measured upto 60 mins by LC-MS/MS analysis. In kind it is ADME, Microsome. The following applies: time < 70 min, read-out: CLH.
Series [7] deals with HCT-116. Kind of series: Downregulation of c-Myc mRNA level in human HCT-116 cells incubated for 24 hrs in presence of 50 mM LiCl by qPCR analysis. The class given is functional, cell-based. The conditions noted are these: dose 10-100 µM.
Series [8] relates to HCT-116. Description: Antitumor activity against human HCT-116 cells xenografted in BALB/c nu/nu mouse assessed as reduction in tumor volume at 25 mg/kg, ip administered every 2 days for 30 day. The class given is functional, organism-based.
In series [9] the test system is HCT-116. Kind of series: Antitumor activity against human HCT-116 cells xenografted in BALB/c nu/nu mouse assessed as reduction in tumor weight at 25 mg/kg, ip administered every 2 days for 30 day. In kind it is functional, organism-based.
Series [10] concerns HCT-116. Kind of series: Downregulation of Sall4 mRNA level in human HCT-116 cells at 10 uM incubated for 24 hrs by qPCR analysis. The class given is functional, cell-based.
Series [11] relates to HCT-116. Description: Inhibition of cell growth in human HCT-116 cells incubated for 48 to 72 hrs by XTT method. The class given is functional, cell-based.
Series [12] deals with SW480. Description: Inhibition of cell growth in human SW480 cells incubated for 48 to 72 hrs by XTT method. In kind it is functional, cell-based.
The subject of series [13] is HCT-116. Description: Inhibition of Wnt/beta-catenin signaling in human HCT-116 cells assessed as residual activity at IC50 concentration incubated for 12 hrs by Topflash/Fopflash Dual-Glo luciferase reporter assay. The class given is cell-based. The conditions noted are these: dose 30.0 µM.
Series [14] has as its system HCT-116. Kind of series: Downregulation of c-Myc protein level in human HCT-116 cells incubated for 24 hrs in presence of 50 mM LiCl by Western blotting analysis. The following applies: dose 10-100 µM. In kind it is functional, cell-based.
For series [15], the target named is T1, Catenin beta-1 (Homo sapiens) (UniProt P35222).
T1 sequence (whole entry): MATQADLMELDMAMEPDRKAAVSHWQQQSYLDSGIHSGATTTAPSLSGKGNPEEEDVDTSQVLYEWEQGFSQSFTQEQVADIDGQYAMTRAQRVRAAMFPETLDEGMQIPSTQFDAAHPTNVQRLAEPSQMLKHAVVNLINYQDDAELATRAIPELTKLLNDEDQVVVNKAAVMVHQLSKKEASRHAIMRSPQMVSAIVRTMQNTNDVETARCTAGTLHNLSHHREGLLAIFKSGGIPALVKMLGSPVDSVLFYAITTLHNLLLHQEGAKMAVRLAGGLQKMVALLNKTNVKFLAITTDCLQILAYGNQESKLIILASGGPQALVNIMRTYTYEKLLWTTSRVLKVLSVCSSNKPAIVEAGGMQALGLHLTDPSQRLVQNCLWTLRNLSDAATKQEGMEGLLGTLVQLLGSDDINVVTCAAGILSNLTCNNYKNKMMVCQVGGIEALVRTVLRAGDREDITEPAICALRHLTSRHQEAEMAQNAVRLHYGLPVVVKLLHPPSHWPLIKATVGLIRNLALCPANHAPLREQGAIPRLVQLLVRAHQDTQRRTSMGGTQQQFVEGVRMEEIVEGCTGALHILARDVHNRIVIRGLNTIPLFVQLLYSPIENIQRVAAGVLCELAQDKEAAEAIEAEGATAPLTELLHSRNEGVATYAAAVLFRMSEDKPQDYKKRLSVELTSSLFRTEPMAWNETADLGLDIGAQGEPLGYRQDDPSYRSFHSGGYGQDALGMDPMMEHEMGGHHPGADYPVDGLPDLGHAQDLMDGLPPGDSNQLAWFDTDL
Kind of series: Inhibition of beta-catenin in human HCT-116 cells transfected with luciferase based vectors incubated for 24 hrs in presence of LiCl. In kind it is cell-based. The conditions noted are these: dose 50-100 nM.

For series [16], the target named is T1, Catenin beta-1 (Homo sapiens). Description: Inhibition of beta-catenin in human HCT-116 cells transfected with luciferase based vectors at 1 to 10 nM incubated for 48 hrs in presence of LiCl. In kind it is cell-based. The following applies: dose 1-10 nM.
A short description of series [17]: Metabolic stability in human liver microsomes assessed as half life preincubated for 10 mins followed by NADP, glucose-6-phosphate and glucose-6-phosphate dehydrogenase addition and measured upto 60 mins by LC-MS/MS analysis. In kind it is ADME, Microsome. The conditions noted are these: time < 70 min.
Series [18] can be described thus: Metabolic stability in mouse liver microsomes assessed as intrinsic clearance per mg protein preincubated for 10 mins followed by NADP, glucose-6-phosphate and glucose-6-phosphate dehydrogenase addition and measured upto 60 mins by LC-MS/MS analysis. The following applies: time < 70 min, read-out: CLH. In kind it is ADME, Microsome.
For series [19], the system named is HCT-116. Description: Downregulation of Fgf20 mRNA level in human HCT-116 cells at 10 uM incubated for 24 hrs by qPCR analysis. The class given is functional, cell-based.

On to `O=S(=O)(Nc1ccc(-n2ccnc2)cc1)c1ccc(Cl)cc1`, for which the Activity is 50% in [1]; 3.7% in series [3]; “Dose-Dependent Effect” in [4]; “Dose-Dependent Effect” in [7]; 2.5% in [13]; “Dose-Dependent Effect” in [14]. The half-life in series [2] and in series [17] was greater than 8.33 h in each case. In addition, the outcome in series [5], in series [8], in [9], in series [10] and in series [19] was Active. Moreover, the microsomal CLint in [6] and in series [18] was less than 3 µL/min/mg each time. Also, the EC50 in series [11] was found to be 120 nM; in [12], 2000 nM. Also, in [15], the inhibition result was “Dose-Dependent Effect”. In series [16], the inhibition entry is “Active”.
